Assay results as given in paper PMC13242511, “Disrupting Notch signalling by a small molecule inhibiting dihydroorotate dehydrogenase activity” (Scientific Reports, 2026).
Where two headings read alike, the source gives them in different places.

Experiments:
γ-secretase complex = γ-secretase complex (Homo sapiens, UniProt P49768); test: APP-C99 counter assay (GSI reporter assay); format: cell-based; set-up: AUC APP: scale not given here; details: for Hill-slope / curve fit information: 14p APP assay DR; for AUC APP: area under the 14-point dose-response curve, replicates averaged; for remaining activity at 10 µM / remaining activity at 25 µM / remaining activity at […]: 24 h, APP-C99 counter assay, read-out: 3p-DR in % of DMSO counter; for remaining activity at […]: 1,25µM
Procedure: To this end, we used a previously established reporter gene-based GSI assay (APP-C99) (Fig. 3A), which measures γ-secretase activity through cleavage of amyloid precursor protein (APP), another protein processed by the γ-secretase complex[24]
Plasmids for APP and luciferase are described in[24] and the renilla plasmid described above generated for this project was used to normalize firefly values. 24 h post transfection cells were seeded on compound plates and cells were cultivated for 24 h before luciferase signals were read, as described.
Two-fold concentrations of compounds were diluted in 10 µl cell culture medium and brought to one-fold by seeding 10 µl containing 4000 cells of the respective cell type on each well of a 384-well plate, as described above. Analogous to the previous assays, all plates contained one DMSO and DAPT control column with the Notch reporter cell line (#A1-11) and a DMSO only and Notch inhibitor control plate was read before the measuring the screening plates. In addition, DAPT and DMSO were spotted in a dose response fashion, and a minimum of four replicates were read. Dose-responses of compounds were recorded in triplicates for each concentration reading out the dual luciferase reporters, as described above. Dose response assays were read together in one session. To measure compound effects, the different assays dose–response curves were fitted using the log(inhibitor) vs. response – Variable slope (model: Y = Bottom + (Top–Bottom)/(1 + 10^((LogIC50-X)*HillSlope)) equation.
A DMSO plate was read before measuring luciferase activity of compound spotted plates. APP firefly luciferase reporter assays were read with a signal integration time of 0.1 s, instead of 0.5 s used for the Notch reporter to reduce signal overlap between wells. […] The area-under-the-curve (AUC) was calculated on dose–response curves using Graphpad Prism.

Notch signalling = test: Notch reporter assay (12xCSL firefly luciferase / renilla luciferase, HEK293T Notch1ΔE reporter cell line clone #A1-11); format: cell-based; set-up: AUC Notch: scale not given here; details: for Bottom (Emax): Emax indicated independent from assay constraints, in % (unit assumed); for AUC Notch: area under the 14-point dose-response curve, replicates averaged; for IC50 / activity at 10 µM / activity at 25 µM / activity: Homo sapiens, HEK-293T; for activity: 1,25µM
Description: To identify novel Notch inhibitors in an unbiased manner, we generated a novel Notch reporter construct, which records the level of Notch signalling immediately downstream of receptor activation rather than further downstream in the signalling cascade, for example at the level of Hes and Hey proteins (Fig. 1B). […] The reporter construct carries piggy-bac sequences at both ends of the promoter-reporter cassette as well as cSH4 insulator elements to reduce transcriptional noise[21] and was transfected into HEK293T cells. To achieve a robust level of Notch receptor activity in the HEK293T reporter cell line and to confine the search for inhibitors to compounds affecting the receptor function and eliminating the need for ligand activation, a truncated ligand-independent version of the Notch1 receptor, mimicking an S2-cleaved Notch1 receptor (Notch1ΔE) and spontaneously activated by S3-cleavage[22] (Fig. 1C) was introduced into the cell line carrying the reporter construct (Fig. 1D). In addition, an HSV-TK-renilla luciferase plasmid was introduced into the cell line as an internal control for normalisation of the reporter expression (Fig. 1D).
A de novo Notch reporter construct, composed of six dimeric CSL binding sites linked to a basic b-globin promoter and followed by a firefly luciferase gene and a PEST degradation domain was synthesised (GeneArt). The construct was stably introduced into HEK293T cells, and zeocin (0.1 mg/ml) or Puromycin (0.05 mg/ml (ThermoFisher, cat #R25001, #A1113803) were used as selection markers. A clonal cell line (clone #A1) with robust renilla expression and enhanced firefly luciferase expression upon transient transfection of Notch1 ICD or Notch1ΔE constructs was selected, and a UB6 promoter-Notch1DE construct was stably introduced into this cell line using Blasticidin (0.1 mg/ml; ThermoFisher, cat #A1113903) as a selection marker. Stable cell lines were generated by serial dilution and only clonal colonies were selected for further evaluation. To measure luciferase reporter activity, cells were washed in cold PBS, detached, and collected in pre-warmed cell culture medium and centrifugated for five min at 200xg. The cell pellet was resuspended in medium, cells were counted, and 4,000 cells were seeded in each well of a white 384 well plate (Corning #3670) in 20 µl medium containing either DMSO or the GSI DAPT (N-[N-(3,5-Difluorophenacetyl)-L-alanyl]-S-phenylglycine t-butyl ester, Sigma-Aldrich, cat #565784-M) and incubated for 24 h. The efficacy of the reporter gene system was determined by monitoring the level of luciferase activation in the absence or presence of different amounts of DAPT in several cell clones. Luciferase activity was assessed using the dual-GLO luciferase detection kit from Promega (cat # E2920), following the manufacturer’s instructions. A minimum of two technical replicates were measured per clone using a SpectraMaxi3 plate reader (Molecular Devices). Reporter activity of different clones and in response to DAPT was assessed by normalising firefly (Notch activity) to renilla luciferase signals. Normalised signals of individual clones cultivated in DMSO were then compared to corresponding signals generated with DAPT-treated cells. The cell clone with the strongest signal to control ratio (DMSO to DAPT) was then selected for further exploration (clone #A1-11).
37,966 compounds were spotted by the compound center at SciLifeLab (https://www.scilifelab.se/) on a total of 120 plates (Greiner #781080) at a fixed concentration of 10 µM and the screening process spanned five consecutive sessions. The layout of each plate contained one column for DMSO and one for DAPT controls to determine the quality and reliability of the data. DAPT controls were spotted at 10 µM and DMSO was spotted in an equimolar volume. In addition, plates spotted with only DMSO were utilized to investigate the impact of plate effects before and after each session. […]

[1] = bottom constrained to Emax of positive control LY-411575
[2] = bottom constrained to Emax of positive control CB-103
[3] = 14p Notch assay DR, averaged when replicate measurements were available, read-out: averaged IC50s
[4] = 14p Notch assay DR, bottom constrained to Emax of positive control DAPT, read-out: approximated IC50
[5] = 14p Notch assay DR, bottom constrained to Emax of positive control RO4929097, read-out: approximated IC50
[6] = 14p Notch assay DR, log10 value, bottom constrained to Emax of positive control DAPT, read-out: approximated LogIC50 (converted)
[7] = 14p Notch assay DR, log10 value, bottom constrained to Emax of positive control RO4929097, read-out: approximated LogIC50 (converted)
[8] = 10 µM, primary screen, 24 h, unit from Fig. 2 legend, read-out: Primary screen at 10 µM (Notch reporter signal)
[9] = 10 µM, three-dose confirmation screen, unit from Fig. 2 legend, read-out: Hit confirmation at 10 µM (Notch reporter signal)
[10] = 10µM, 3-point DR confirmation screen, Notch reporter assay, read-out: inhibitor ratio in % of DMSO in 3 point DR
[11] = 10 µM, sheet conf vs counter 10 µM, same values as 3-point DR confirmation screen, read-out: Confirmation screen
[12] = 25µM, 3-point DR confirmation screen, Notch reporter assay, read-out: inhibitor ratio in % of DMSO in 3 point DR
[13] = 25 µM, Notch reporter 3-point dose-confirmation assay, sheet "conf vs counter 25 µM", read-out: Confirmation screen
[14] = 3-point DR confirmation screen, Notch reporter assay, read-out: inhibitor ratio in % of DMSO in 3 point DR
[15] = 14-point dose-response, Fig. 4, read-out: approximated IC50, Notch reporter assay

SMILES | Hill-slope (γ-secretase complex; [1]) | AUC APP (γ-secretase complex) | Bottom (Emax) (Notch signalling; 14p Notch assay DR) | AUC Notch (Notch signalling) | remaining activity at 10 µM (γ-secretase complex) | remaining activity at 25 µM (γ-secretase complex) | remaining activity at […] (γ-secretase complex) | IC50 (Notch signalling; [4]) | IC50 (Notch signalling; [6]) | activity at 10 µM (Notch signalling; [8]) | activity at 10 µM (Notch signalling; [9]) | activity at 10 µM (Notch signalling; [10]) | activity at 10 µM (Notch signalling; [11]) | activity at 25 µM (Notch signalling; [12]) | activity at 25 µM (Notch signalling; [13]) | activity (Notch signalling; [14]) | curve fit information (γ-secretase complex; [1]) | other results
c1ccc(Nc2nc(-c3ccc(Oc4ccccc4)cc3)cn3ccnc23)cc1 [CBK066406] | 0.00761 | 491.7 | 88.8 | 367.0 | – | – | – | – | – | – | – | – | – | – | – | – | – | –
O=C1NC(c2cccnc2)Nc2sc3c(c21)CCCC3 (stereo not shown) [CBK072377] | 0.0091 | 497.7 | 89.1 | 364.0 | – | – | – | – | – | – | – | – | – | – | – | – | – | approximated IC50, Notch reporter assay (Notch signalling; 14-point dose-response, Fig. 4): Indeterminate
COc1cccc(CNc2ccc(N3CCOCC3)cc2)c1OCc1ccccc1F [CBK074406] | 0.0527 | 758.8 | – | 518.0 | 153% | 158% | 102% | 3.5 µM | 3.16 µM | 56.4% | 68% | 68% | 68% | 66.7% | 66.7% | 98.6% | – | Hill-slope (γ-secretase complex; [2]): 0.00965; IC50 (Notch signalling; [3]): 3.5 µM; IC50 (Notch signalling; [5]): 3.5 µM; IC50 (Notch signalling; [7]): 3.16 µM
COc1cccc(Nc2nc(-c3cccnc3)cn3ccnc23)c1 [CBK103068] | 0.0551 | 517.0 | 69.8 | 335.0 | – | – | – | > 40 µM | > 40 µM | – | – | – | – | – | – | – | – | –
Cc1c(C(C)NC(=O)c2[nH]c3ccccc3c2Cl)cnn1C (stereo not shown) [CBK246640] | 0.0225 | 737.0 | 91.1 | 612.0 | – | – | – | – | – | – | – | – | – | – | – | – | – | approximated IC50, Notch reporter assay (Notch signalling; 14-point dose-response, Fig. 4): Indeterminate
Cc1ccc2cc(C(=O)NC(C)c3cnn(C)c3C)[nH]c2c1 (stereo not shown) [CBK246728] | – | 720.8 | – | 605.0 | – | – | – | > 5 µM | > 5 µM | – | – | – | – | – | – | – | IC50 indeterminate | IC50 (Notch signalling; [15]): > 5 µM
CC(=O)Oc1cccc(N2C(=O)c3ccc(Oc4cccc(N)c4)cc3C2=O)c1 [CBK261099] | -2.8 | 428.7 | 18.6 | 282.0 | 80.5% | 59.7% | 124% | 1.8 µM | 1.58 µM | 31.5% | 28.1% | 28.1% | 28.1% | 20.3% | 20.3% | 87.9% | – | –
Cc1ccccc1C(=O)NC(=S)Nc1sc2c(c1C(N)=O)CCC2 [CBK262107] | 0.0876 | 533.6 | 90.8 | 379.0 | – | – | – | – | – | – | – | – | – | – | – | – | – | IC50 (Notch signalling; [15]): > 40 µM
CCn1ncc(CN(C)C(=O)c2cc(-c3cccnc3)nc3ccc(Cl)cc23)c1C [CBK276708] | – | 735.5 | 29.2 | 559.0 | – | – | – | 10 µM | 10 µM | – | – | – | – | – | – | – | IC50 indeterminate | IC50 (Notch signalling; [15]): > 5 µM
CCOc1ccccc1-c1ccccc1NC(=O)c1ccc2c(c1)ncn2C1CC1 [CBK285808] | 0.0761 | 538.6 | 26.5 | 300.0 | 165% | 197% | 113% | 5.1 µM | 5.01 µM | 35.1% | 64.7% | 64.7% | 64.7% | 45.7% | 45.7% | 102% | – | –
Cc1[nH]c2cccc(C(=O)N3CCCCC3CCNC(=O)c3ccccc3)c2c1C (stereo not shown) [CBK285976] | -2.25e-11 | 774.2 | – | 532.0 | 145% | 135% | 126% | 3.5 µM | 3.16 µM | 37.7% | 54.9% | 54.9% | 54.9% | 38.3% | 38.3% | 100% | IC50 indeterminate | Hill-slope (γ-secretase complex; [2]): 0.344; IC50 (Notch signalling; [3]): 3.2 µM; IC50 (Notch signalling; [5]): 3 µM; IC50 (Notch signalling; [7]): 3.16 µM
CC(=O)N1CCc2sccc2C1c1ccccc1NCc1ccoc1 (stereo not shown) [CBK286432] | -0.0118 | – | – | – | 152% | 184% | 147% | – | – | 37.6% | 57.2% | 57.2% | 57.2% | 45.5% | 45.5% | 88.7% | – | –
CC(=O)N1CCc2sccc2C1c1ccccc1NC(=O)c1ccco1 (stereo not shown) [CBK286436] | – | 642.7 | 99.7 | 629.0 | – | – | – | – | – | – | – | – | – | – | – | – | IC50 indeterminate | –
